Results: patent US9790253B2, “OSW-1 analogs and conjugates, and uses thereof” (priority 2011, dated 2017)
“Also recorded” adds a separate entry of the source. Like-named read-outs stand apart in the source and are kept apart here. Where a SMILES comes first, the peptide text is derived from it. The star is where a group is joined. Cbz = O=C(OCc1ccccc1)*

Tests used:
HCT-116 p21^−/− cells = assay: cells; details: for GI50: Homo sapiens, HCT-116, 48 h, read-out: GI50 (nM) 48 h p21^−/−
Description: (§1) Cell viability assay. Cells were plated into 96-well plates in 75 μL of media. After 24 h, a time-zero plate was produced by adding 25 μL of media and 20 μL of CellTiter-Blue® (Promega) to the wells, followed by incubation at 37° C. for 90 min. Fluorescence (544 nm excitation; 590 nm emission) was detected using a SPECTRAmax® Gemini XS to establish cell viability at time of dosing. Then, compounds were serially diluted in media and delivered to the cells as 4× solutions in 25 μL of media. At either 48 h or 72 h, CellTiter-Blue® was added and the fluorescence was recorded as described above.
(§2) Tasdemir et al. (2002) J Nat Prod 65:210-4. GI50-values of the compounds were determined in HCT-116 p21^+/+ (wt) and p21^−/− cells after 48 h using a resazurin redox dye to measure cell viability.
(§3) Methods are described above in the General Methods section.

[1] = system: HCT-116 p21^+/+ (wt) cells; assay: Growth inhibition (cell viability assay) of HCT-116 p21+/+ cells; details: for GI50: Homo sapiens
Description: as §1, §2, §3

OSBP1-myc-his = molecular target: T1, OSBP1-myc-his (Homo sapiens, UniProt P22059); assay: [3H]-25-hydroxycholesterol charcoal-dextran binding assay with OSBP1-myc-his
T1 construct: made in house; host or cells: HEK-293T (transient transfection; S100 lysate, not purified)
T1 sequence (P22059 1-807): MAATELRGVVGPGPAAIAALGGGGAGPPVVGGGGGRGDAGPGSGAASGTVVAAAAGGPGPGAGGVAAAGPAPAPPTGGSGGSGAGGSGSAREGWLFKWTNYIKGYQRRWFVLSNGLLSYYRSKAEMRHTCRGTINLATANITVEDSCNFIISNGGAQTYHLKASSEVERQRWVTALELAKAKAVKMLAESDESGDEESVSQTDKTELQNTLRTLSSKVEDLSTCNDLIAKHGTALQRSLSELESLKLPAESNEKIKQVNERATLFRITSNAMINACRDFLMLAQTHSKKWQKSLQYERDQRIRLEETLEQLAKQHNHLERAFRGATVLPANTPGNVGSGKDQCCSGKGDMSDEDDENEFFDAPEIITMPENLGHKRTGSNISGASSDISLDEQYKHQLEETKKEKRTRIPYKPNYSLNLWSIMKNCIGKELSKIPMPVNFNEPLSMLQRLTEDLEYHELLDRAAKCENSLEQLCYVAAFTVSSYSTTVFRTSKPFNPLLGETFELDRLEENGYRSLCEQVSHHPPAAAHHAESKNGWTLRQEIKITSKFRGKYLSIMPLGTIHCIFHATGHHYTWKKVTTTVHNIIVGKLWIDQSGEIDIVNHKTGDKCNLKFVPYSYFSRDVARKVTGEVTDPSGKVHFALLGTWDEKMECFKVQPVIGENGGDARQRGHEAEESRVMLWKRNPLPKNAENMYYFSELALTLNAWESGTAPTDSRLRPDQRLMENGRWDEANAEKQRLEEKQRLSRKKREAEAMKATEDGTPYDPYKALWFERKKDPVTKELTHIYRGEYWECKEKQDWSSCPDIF
From the text: [^3H]-25-Hydroxycholesterol charcoal-dextran binding assay.
as §3

A549 cells = assay: cells; type: cell-based, human; details: for GI50: Homo sapiens, A549, 48 h, read-out: GI50 (nM) 48 h
From the text: Methods are essentially as described above in the General Methods section in connection with assays using HCT-116 cells.

ORP4L-myc-his = molecular target: T2, ORP4L-myc-his (Homo sapiens, UniProt Q969R2); assay: [3H]-25-hydroxycholesterol charcoal-dextran binding assay with ORP4L-myc-his
T2 sequence (Q969R2 1-916): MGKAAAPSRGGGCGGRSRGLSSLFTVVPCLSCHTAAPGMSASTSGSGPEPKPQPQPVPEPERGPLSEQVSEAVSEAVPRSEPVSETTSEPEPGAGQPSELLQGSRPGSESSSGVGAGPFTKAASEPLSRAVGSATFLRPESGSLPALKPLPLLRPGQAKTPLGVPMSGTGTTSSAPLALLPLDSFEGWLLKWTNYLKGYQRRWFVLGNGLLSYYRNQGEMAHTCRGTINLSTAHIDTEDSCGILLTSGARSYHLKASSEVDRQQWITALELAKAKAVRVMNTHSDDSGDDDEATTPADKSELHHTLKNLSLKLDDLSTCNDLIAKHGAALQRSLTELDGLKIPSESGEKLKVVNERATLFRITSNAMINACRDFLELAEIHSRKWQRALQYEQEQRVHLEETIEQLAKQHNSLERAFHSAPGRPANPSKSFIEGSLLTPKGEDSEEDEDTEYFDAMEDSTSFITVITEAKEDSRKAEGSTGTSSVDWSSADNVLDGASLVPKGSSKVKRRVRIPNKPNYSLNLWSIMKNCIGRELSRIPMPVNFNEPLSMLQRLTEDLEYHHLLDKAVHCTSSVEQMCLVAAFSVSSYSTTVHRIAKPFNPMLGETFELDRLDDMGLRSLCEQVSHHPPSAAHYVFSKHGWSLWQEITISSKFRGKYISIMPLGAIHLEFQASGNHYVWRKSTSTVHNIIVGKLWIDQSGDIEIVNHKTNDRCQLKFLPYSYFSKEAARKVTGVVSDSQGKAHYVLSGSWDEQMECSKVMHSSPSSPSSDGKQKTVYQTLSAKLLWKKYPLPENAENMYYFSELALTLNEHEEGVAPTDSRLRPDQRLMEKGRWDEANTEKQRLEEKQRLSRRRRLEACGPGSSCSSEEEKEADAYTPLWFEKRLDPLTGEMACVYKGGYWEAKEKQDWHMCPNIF
Description: [^3H]-25-Hydroxycholesterol charcoal-dextran binding assay. […] These vectors were transfected into HEK-293T cells using Lipofectamine™2000 (Invitrogen), and 48 h after transfection, on-plate lysis of the transfected cells with the M-Per®/HALT™ with EDTA (ThermoScientific) reagent was performed, followed by ultracentrifugation at 100,000 g. The S100 lysate was diluted to 0.2 mg/mL, aliquoted and stored at −80° C. until use. The HEK-293T OSBP1-, ORP4L- or lacZ-myc-his lysate was incubated with [^3H]-25-hydroxycholesterol at 4° C. for 16 h in 96-well plates. After incubation, charcoal/dextran (C/D) was added to the wells for 30 min of shaking at RT, followed by centrifugation for 15 min at 1900 g to pellet the C/D. The C/D-cleared lysate was added to MicroScint™-20 (PerkinElmer) scintillation fluid, and the remaining protein-bound radiolabel was quantified using a TopCount™ scintillation counter. [^3H]-25-hydroxycholesterol binding curves and competition curves were repeated at least three times.
Lysates were thawed on ice, with brief periods of hand warming. Both the ^3H-25-OHC direct binding assays and the ^3H-25-OHC competition binding assays were set up similarly, with a large stock of binding assay lysate being prepared, then 73.5 μL of the binding assay mixture dispensed using a multi-channel pipettor into “V”-shaped 96-well plates. For the ^3H-25-OHC direct binding assay, 1.5 μL of ^3H-25-OHC and ^3H-25-OHC/40×25-OHC added to the wells in dilutions in 100% ethanol. For the ^3H-25-OHC competition binding assays, ^3H-25-OHC was added to the large stock of binding assay lysate to a final concentration of 20 nM. This ^3H-25-OHC-containing binding lysate was then dispensed using a multi-channel pipettor into the 96-well plates. Then, 1.5 μL of a serial dilution of the inhibitors in either 100% ethanol (25-OHC) or DMSO (the ORPphilins) was added to each well.
The binding lysate used in each well of the 96-well plate consisted of 60 μL of 0.2 mg/mL S100 lysate, 7.5 μL 20% PVA, and 5.6 μL 2M KCl. For ^3H-25-OHC binding curve experiments, 0.4 μL of buffer was then added (total volume per well: 73.5 μL). For the ^3H-25-OHC inhibition competition assays, 0.11 μL of 13.2 μM ^3H-25-OHC and 0.29 μL binding buffer was added for each well (total volume per well: 73.5 μL).
Binding assays were incubated, standing, for 16 h at 4° C. Then 30 μL of the rt C/D solution was multichannel pipetted into new “V’ shaped 96-well plates, and 60 μL of the binding lysate mixture was then added. The plates were briefly, lightly vortexed (˜10 sec), 10 and then rocked at 250 rpm for 30 min at rt. The plates were then centrifuged at 1900 g for 15 min at 4° C. in Microplate Carriers (Sorvall cat. #75006449S) in a Sorvall Legend RT centrifuge. Carefully so as to not disturb the C/D pellet, 30 μL of the supernatant was transferred to 170 μL of Microscint-20 in the OptiPlates. The plates were sealed with the TopSealA-Films, and vigorously vortexed (max speed, >1 min). ^3H-25-OHC detection in the wells was then performed using a TopCount Scintillation detector, counting each well for 2 min. Data was graphed and analyzed using GraphPad PrismS, using non-linear regression to determine KD and K1 values.
Binding experiments were performed at 4° C. for 16 h. Unbound sterol was removed using dextran-coated charcoal, and protein-bound sterol left in the supernatant was quantified by scintillation counting. Ki-values were determined as mean±s.d. from at least three independent experiments.

HCT-116 cells = assay: Growth inhibition with 25-OHC co-administration; type: cell-based, human; details: 10 μM 25-OHC for 1 and 2
Description: 25-OHC (11) is a high-affinity ligand of OSBP1 and ORP4L that is not cytotoxic at concentrations up to 10 μM. Example 1 established that the ORPphilins compete with 25-OHC for binding to OSBP1 and ORP4L (FIG. 2D,E). Therefore, if OSBP1 and ORP4L mediate the biological activities of these compounds, co-administration of sub-lethal doses of 25-OHC with the ORPphilins should inhibit binding of the ORPphilins to OSBP1 and ORP4L, thereby desensitizing cells to the cytotoxic effects of the ORPphilins.

[2] = molecular target: T3, OSBP1 protein levels in HCT-116 cells (Homo sapiens, UniProt P22059); assay: OSBP1 protein levels by western blotting; type: cell-based; details: for block of OSBP1 degradation by 1 and 2: co-administered with 1 and 2; for effect on OSBP1 levels, compound alone: concentration not given
T3 construct: endogenous in cells; host or cells: HCT-116
T3 sequence (P22059 1-807): T1 sequence (P22059 1-807)
Description: A possible explanation for this observation was that treatment with 1 and 2 caused a decrease in OSBP1 levels. Treatment of HCT-116 cells with vehicle (DMSO) or 25-OHC (10 μM) had no effect on OSBP1 levels, as assessed by western blotting (FIG. 6A). However, treatment with 1 or 2 induced a dramatic, time-dependent reduction of OSBP1 levels (FIG. 6A). For example, 50 nM of 1 or 10 nM of 2 caused an approximately 75% reduction in OSBP1 protein levels at 24 h in HCT-116 cells (FIG. 6A), with a similar effect recorded in A549 cells. […] OSBP1 levels were determined using both an antibody recognizing the far N-terminus of OSBP1 (FIG. 6) and also an antibody recognizing the C-terminus of OSBP1.
One possible explanation for the reduction in OSBP1 levels upon treatment with 1 and 2 was proteasome-dependent degradation. To determine whether degradation of OSBP1 was proteasome dependent, proteasome inhibitors MG-132 or lactacystin were co-administered with 1 and 2. […] Similar results were obtained in A549 cells.

[3] = HCT-116, 48 h, read-out: GI50 (nM) 48 h p21^+/+
[4] = competition with 20 nM [3H]-25-OHC, HEK-293T S100 lysate, 4° C., 16 h

Row | SMILES | GI50 (HCT-116 p21^−/− cells) [nM] | GI50 [1, 3] [nM] | Ki (OSBP1-myc-his) [nM] | GI50 (A549 cells) [nM] | Ki (ORP4L-myc-his) [nM] | further results
1 | C=CCOC(=O)NCc1ccc(CNC(=O)O[C@H]2CC[C@@]3(C)C(=CC[C@@H]4C3CC[C@@]3(C)[C@H]4C[C@H](OC4OCC(O)C(OC5OCC(O)C(O)C5OC(=O)c5ccc(OC)cc5)C4OC(C)=O)[C@]3(O)[C@H](C)C(=O)CCC(C)C)C2)cc1 (stereo partly drawn) [Compound 106] | 5 ± 3 | 91 ± 10 | – | – | – | –
2 | C=CCOC(=O)NCCCCCCNC(=O)O[C@H]1CC[C@@]2(C)C(=CC[C@@H]3C2CC[C@@]2(C)[C@H]3C[C@H](OC3OCC(O)C(OC4OCC(O)C(O)C4O)C3O)[C@]2(O)[C@H](C)C(=O)CCC(C)C)C1 (stereo partly drawn) [Compound 104] | 525 ± 4 | > 2700 | – | – | – | –
3 | C=CCOC(=O)NCc1ccc(CNC(=O)O[C@H]2CC[C@@]3(C)C(=CC[C@@H]4C3CC[C@@]3(C)[C@H]4C[C@H](OC4OCC(O)C(OC5OCC(O)C(O)C5O)C4O)[C@]3(O)[C@H](C)C(=O)CCC(C)C)C2)cc1 (stereo partly drawn) [Compound 20] | 550 ± 300 | 6500 ± 3600 | – | – | – | –
4 | C=CCOC(=O)NCc1ccc(CNC(=O)OC2COC(OC3C(O)COC(O[C@H]4C[C@H]5[C@@H]6CC=C7C[C@@H](O)CC[C@]7(C)C6CC[C@]5(C)[C@@]4(O)[C@H](C)C(=O)CCC(C)C)C3OC(C)=O)C(OC(=O)c3ccc(OC)cc3)C2O)cc1 (stereo partly drawn) [Compound 6c] | 2.2 ± 0.5 | 17 ± 4 | 46 ± 11 | 2.9 ± 0.9 | 150 ± 50 | –
5 | COc1ccc(C(=O)OC2C(OC3C(O)COC(O[C@H]4C[C@H]5[C@@H]6CC=C7C[C@@H](OC(=O)NCCCCCCNC(=O)OCC8c9ccccc9-c9ccccc98)CC[C@]7(C)C6CC[C@]5(C)[C@@]4(O)[C@H](C)C(=O)CCC(C)C)C3OC(C)=O)OCC(O)C2O)cc1 (stereo partly drawn) [Compound 102] | 97 | 85 | – | – | – | –
6 | C[C@H]1CCC/C=C/[C@@H]2C[C@H](O)C[C@H]2[C@H](O)/C=C/C(=O)O1 [brefeldin A] | – | – | – | – | – | effect of 25-OHC co-administration on the antiproliferative activity (HCT-116 cells): did not affect
7 | C=CCOC(=O)NCCCCCCNC(=O)O[C@H]1CC[C@@]2(C)C(=CC[C@@H]3C2CC[C@@]2(C)[C@H]3C[C@H](OC3OCC(O)C(OC4OCC(O)C(O)C4OC(=O)c4ccc(OC)cc4)C3OC(C)=O)[C@]2(O)[C@H](C)C(=O)CCC(C)C)C1 (stereo partly drawn) [Compound 103] | 138 ± 16 | 172 ± 2 | – | – | – | –
8 | CC(=O)OC1C(O[C@H]2C[C@H]3[C@@H]4CC=C5C[C@@H](O)CC[C@]5(C)C4CC[C@]3(C)[C@@]2(O)[C@H](C)C(=O)CCC(C)C)OCC(O)C1OC1OCC(O)C(O)C1O (stereo partly drawn) [Compound 7] | 17 ± 2 | 120 ± 40 | 63 ± 12 | 41 ± 25 | 120 ± 31 | –
9 | CC(C)CCC(=O)[C@@H](C)[C@@]1(O)[C@@H](OC2OCC(O)C(OC3OCC(O)C(O)C3O)C2O)C[C@H]2[C@@H]3CC=C4C[C@@H](O)CC[C@]4(C)C3CC[C@@]21C (stereo partly drawn) [Compound 8] | 220 ± 60 | 1400 ± 400 | 170 ± 7 | 570 ± 250 | 760 ± 200 | –
10 | CC(C)C[C@@H](C=O)NC(=O)[C@H](CC(C)C)NC(=O)[C@H](CC(C)C)NC(=O)OCc1ccccc1 [MG-132] (Cbz-Leu-Leu-Leu-aldehyde) | – | – | – | – | – | block of OSBP1 degradation by 1 and 2 [2]: completely blocked; effect on OSBP1 levels, compound alone [2]: did not affect
11 | CC(=O)N[C@@H](CSC(=O)[C@]1([C@@H](O)C(C)C)NC(=O)[C@H](C)[C@@H]1O)C(=O)O [lactacystin] | – | – | – | – | – | block of OSBP1 degradation by 1 and 2 [2]: completely blocked; effect on OSBP1 levels, compound alone [2]: did not affect
12 | COc1ccc(C(=O)OC2C(OC3C(O)COC(O[C@H]4C[C@H]5[C@@H]6CC=C7C[C@@H](O[Si](C)(C)C(C)(C)C)CC[C@]7(C)C6CC[C@]5(C)[C@@]4(O)[C@H](C)C(=O)CCC(C)C)C3OC(C)=O)OCC(O)C2O)cc1 (stereo partly drawn) [Compound 108, 3-(tert-Butyldimethylsilyl)-OSW-1] | 720 ± 90 | 2300 ± 200 | – | 1600 ± 500 | – | fold less cytotoxic than 2 in HCT-116 p21−/− cells (HCT-116 p21^−/− cells): 2100 fold; [^3H]-25-OHC K1 (nM) OSBP1-myc-his (OSBP1-myc-his; [4]): None detected; competition with [3H]-25-OHC for binding to OSBP1 (OSBP1-myc-his; listed as 9): did not compete; also recorded: does not bind; fold less cytotoxic than 2 in A549 cells (A549 cells): 700 fold; fold less active than OSW-1 (2) in HCT-116 cells [1]: ca. 1,400 fold; GI50 ([1]; HCT-116, read-out: GI50 in HCT-116 cells): 2300 nM; [^3H]-25-OHC K1 (nM) ORP4L-myc-his (ORP4L-myc-his; [4]): None detected; competition with [3H]-25-OHC for binding to ORP4L (ORP4L-myc-his; listed as 9): did not compete; also recorded: does not bind
13 | C=CCOC(=O)NCc1ccc(CNC(=O)OC2C(O)COC(OC3C(O)COC(O[C@H]4C[C@H]5[C@@H]6CC=C7C[C@@H](O)CC[C@]7(C)C6CC[C@]5(C)[C@@]4(O)[C@H](C)C(=O)CCC(C)C)C3OC(C)=O)C2OC(=O)c2ccc(OC)cc2)cc1 (stereo partly drawn) [Compound 6a] | 0.08 ± 0.02 | 0.6 ± 0.13 | 18 ± 5 | 0.1 ± 0.04 | 43 ± 9 | p21−/− selectivity of growth inhibition (HCT-116 p21−/− versus wt) (HCT-116 p21^−/− cells; 48 h): commensurate with that of 2; antiproliferative potency relative to 2 [1]: maintained the antiproliferative potency of 2
